These results are taken from patent publication US7348402B2, “Antimicrobial peptide, its analogs and antimicrobial composition comprising them” (priority 2002, dated 2008).

No end group written: not given here.

Assay type in all cases: cell-based
The subject of assay [1] is Bacillus subtilis (ATCC 62037). The conditions noted are these: ATCC 62037, 12 h. An excerpt: (§1) The microorganisms used in the present invention include Gram-positive bacteria such as Bacillus subtilis (ATCC 62037), Staphylococcus aureus (ATCC 15752) and Streptococcus mutans (ATCC 25175), Gram-negative bacteria such as Escherichia coli (ATCC 27325), Salmonella enteritidis (ATCC 15277) and Pseudomonas putida (ATCC 17426) and fungi such as Candida albicans (ATCC 10231), Saccharomyces cerevisiae (ATCC 44774) and Cryptococcus neoformans (ATCC 34881), obtained from American Type Culture Collection (ATCC).
(§2) The antimicrobial activity of the peptides prepared in Example 1 was determined against microorganisms by 96-well microdilution minimal inhibitory concentration assay. After overnight culturing the bacteria and fungi in trypticase soy broth (TSB) and Saboraud (SAB) at 37° C. and 30° C., respectively, they were inoculated in new media and cultured for 2 hours to exponential growth phase. After diluting the microorganisms to 10^5 per 1 ml, 190 μl was inoculated in each 96-well plate, and 10 μl of serially diluted peptides were added in each well.

Assay [2] relates to Pseudomonas putida (ATCC 17426). The conditions noted are these: ATCC 17426, 12 h.
Text: as §1, §2

The subject of assay [3] is Streptococcus mutans (ATCC 25175). The conditions noted are these: ATCC 25175, 12 h.
Text: as §1, §2

Assay [4] concerns Saccharomyces cerevisiae (ATCC 44774). The conditions noted are these: ATCC 44774, 12 h.
Text: as §1, §2

Assay [5] concerns Candida albicans (ATCC 10231). Conditions: ATCC 10231, 12 h.
Text: as §1, §2

Assay [6] concerns Staphylococcus aureus (ATCC 15752). Conditions: ATCC 15752, 12 h.
Text: as §1, §2

The test system of assay [7] is Cryptococcus neoformans (ATCC 34881). Conditions: ATCC 34881, 12 h.
Text: as §1, §2

For assay [8], the system named is Salmonella enteritidis (ATCC 15277). The conditions noted are these: ATCC 15277, 12 h.
Text: as §1, §2

The test system of assay [9] is Escherichia coli (ATCC 27325). Conditions: ATCC 27325, 12 h.
Text: as §1, §2

KLLKKLLKKLLKNWPIGKLLK [compound 55]: the “Minimum Inhibitory Concentration” value in [1] was 1 µg/mL; in [2], 1 µg/mL; in assay [3], 2 µg/mL; in assay [4], 2 µg/mL; in assay [5] it was 1 µg/mL; in [6] it was 1 µg/mL. Moreover, the “Minimum Inhibitory Concentration” value in [7] stood at 1 µg/mL; in assay [8], 1 µg/mL; in [9] it was 2 µg/mL.
Turning to KLLKKLLKKLLKQWPIGKLLK [compound 38], the “Minimum Inhibitory Concentration” value in assay [1] was found to be 1 µg/mL; in assay [2], 1 µg/mL; in assay [3], 2 µg/mL; in assay [4] it was 2 µg/mL; in assay [5], 2 µg/mL; in assay [6], 1 µg/mL. The entries for the “Minimum Inhibitory Concentration” value in [7], in [8] and in [9] were 1 µg/mL, 1 µg/mL and 2 µg/mL, respectively.
For KLLKNWPIGKLLKKLLKKLLK [compound 21], the “Minimum Inhibitory Concentration” value in assay [1] turned out to be 1 µg/mL; in assay [2], 1 µg/mL; in assay [3] it was 2 µg/mL; in assay [4], 1 µg/mL; in [5], 2 µg/mL; in assay [6], 1 µg/mL. For the same substance, the entries for the “Minimum Inhibitory Concentration” value in assay [7], in assay [8] and in assay [9] were 1 µg/mL, 2 µg/mL and 1 µg/mL, respectively.
For KLLKQWPIGKLLKKLLKKLLK [compound 4], the “Minimum Inhibitory Concentration” value in [1] was 2 µg/mL; in [2] it was 1 µg/mL; in [3], 1 µg/mL; in assay [4], 2 µg/mL; in assay [5], 1 µg/mL; in assay [6] it was 1 µg/mL. For the same substance, the “Minimum Inhibitory Concentration” value in assay [7], in assay [8] and in [9] was 1 µg/mL throughout.
With KLLRKLLRKLLRNWPIGKLLR [compound 63], the “Minimum Inhibitory Concentration” value came out at 1 µg/mL in [1]; 1 µg/mL in assay [2]; 2 µg/mL in [3]; 2 µg/mL in assay [4]; 1 µg/mL in assay [5]; 1 µg/mL in assay [6]. Further, the results for the “Minimum Inhibitory Concentration” value in assay [7], in assay [8] and in assay [9] were 1 µg/mL, 2 µg/mL and 1 µg/mL, respectively.
Consider KLLRNWPIGKLLRKLLRKLLR [compound 29], for which the “Minimum Inhibitory Concentration” value in assay [1] was determined as 1 µg/mL; in [2] it was 1 µg/mL; in [3], 2 µg/mL; in assay [4], 2 µg/mL; in [5], 1 µg/mL; in [6] it was 1 µg/mL. The “Minimum Inhibitory Concentration” value in assay [7], in assay [8] and in assay [9] was 1 µg/mL throughout.
Consider KLVKKLVKKLVKQWPIGKLVK [compound 42], for which the “Minimum Inhibitory Concentration” value in assay [1] came out at 1 µg/mL; in assay [2], 1 µg/mL; in assay [3], 2 µg/mL; in assay [4], 1 µg/mL; in assay [5], 1 µg/mL; in assay [6] it was 1 µg/mL. Besides, the “Minimum Inhibitory Concentration” value in assay [7], in assay [8] and in assay [9] was 1 µg/mL each time.
Consider KLVKQWPIGKLVKKLVKKLVK [compound 8], for which the “Minimum Inhibitory Concentration” value in assay [1] worked out at 1 µg/mL; in [2], 1 µg/mL; in [3], 2 µg/mL; in assay [4] it was 2 µg/mL; in assay [5], 2 µg/mL; in [6], 1 µg/mL. In addition, the “Minimum Inhibitory Concentration” value in assay [7], in assay [8] and in [9] was 1 µg/mL each time.
As to KLVRKLVRKLVRNFPVGKLVR [compound 68], the “Minimum Inhibitory Concentration” value amounted to 1 µg/mL in [1]; 1 µg/mL in [2]; 2 µg/mL in assay [3]; 2 µg/mL in assay [4]; 1 µg/mL in assay [5]; 1 µg/mL in assay [6]. For the same substance, the “Minimum Inhibitory Concentration” value in [7], in assay [8] and in assay [9] was 1 µg/mL throughout.
As to KLVRKLVRKLVRQFPVGKLVR [compound 51], the “Minimum Inhibitory Concentration” value was found to be 1 µg/mL in [1]; 1 µg/mL in assay [2]; 1 µg/mL in assay [3]; 2 µg/mL in assay [4]; 1 µg/mL in [5]; 1 µg/mL in [6]. The “Minimum Inhibitory Concentration” value in assay [7] was 1 µg/mL; in assay [8] it was 2 µg/mL; in assay [9], 1 µg/mL.
As to KLVRKLVRKLVRQWPIGKLVR [compound 50], the “Minimum Inhibitory Concentration” value in assay [1] was found to be 1 µg/mL; in assay [2], 1 µg/mL; in [3] it was 1 µg/mL; in assay [4] it was 2 µg/mL; in assay [5], 1 µg/mL; in [6], 1 µg/mL. Besides, the entries for the “Minimum Inhibitory Concentration” value in assay [7], in assay [8] and in assay [9] were 1 µg/mL, 2 µg/mL and 1 µg/mL, respectively.
Regarding KLVRNFPVGKLVRKLVRKLVR [compound 34], the “Minimum Inhibitory Concentration” value in assay [1] is 1 µg/mL; in assay [2] it was 1 µg/mL; in assay [3] it was 2 µg/mL; in assay [4], 1 µg/mL; in assay [5], 1 µg/mL; in assay [6], 1 µg/mL. The “Minimum Inhibitory Concentration” value in assay [7], in assay [8] and in assay [9] was 1 µg/mL throughout.
As for KLVRQFPVGKLVRKLVRKLVR [compound 17], the “Minimum Inhibitory Concentration” value in assay [1] is 2 µg/mL; in assay [2], 1 µg/mL; in assay [3], 2 µg/mL; in assay [4], 1 µg/mL; in assay [5], 1 µg/mL; in [6], 1 µg/mL. For the same substance, the “Minimum Inhibitory Concentration” value in assay [7], in [8] and in assay [9] was 1 µg/mL in each case.
On to KLVRQWPIGKLVRKLVRKLVR [compound 16], for which the “Minimum Inhibitory Concentration” value in assay [1] is 2 µg/mL; in [2], 1 µg/mL; in assay [3] it was 2 µg/mL; in [4], 1 µg/mL; in assay [5], 1 µg/mL; in [6], 1 µg/mL. In addition, the “Minimum Inhibitory Concentration” value in assay [7], in assay [8] and in assay [9] was 1 µg/mL each time.
As to KLVRQWPIGKLVRKLVRKLVR-NH2 [compound 69], the “Minimum Inhibitory Concentration” value in assay [1] turned out to be 1 µg/mL; in [2], 1 µg/mL; in assay [3], 1 µg/mL; in [4], 2 µg/mL; in assay [5], 1 µg/mL; in [6], 1 µg/mL. For the same substance, the entries for the “Minimum Inhibitory Concentration” value in assay [7], in [8] and in assay [9] were 1 µg/mL, 2 µg/mL and 1 µg/mL, respectively.
